# Measured values published in US20250262179A1, “PHARMACEUTICAL COMPOSITION FOR PREVENTING AND/OR TREATING AUTOIMMUNE DISEASES” (NATIONAL CENTER FOR CHILD HEALTH AND DEVELOPMENT, priority 2022, published 2025).
# Test system: collagen-induced arthritis (CIA) model rats
# Assay: Collagen-induced arthritis (CIA) model: foot volume and arthritis score
# Format: in vivo, DA/Slc rats
# Description: For 9 weeks-old female DA/Slc rats, under isoflurane anesthesia employing a simplified inhalation anesthesia device for animals (model type: NARCOBIT-E (type II), Natsume Seisakusho Co., Ltd.), the tail root which is the administration site was shaved with an electric shaver, and 0.05 mL in each of left and right sides of the tail root of all animals for a total of 0.1 mL of the symptom evoking substance administration fluid was intracutaneously administrated with a syringe (Terumo Corporation) and an injection needle (Terumo Corporation). The symptom evoking substance administration fluid was prepared by adding bovine type-II collagen and an equal amount of Incomplete Freund Adjuvant to an interchangeable glass syringe (TOP Corporation), and then mixing well.
# The symptom evoking substance was administered only on Day 0, and each test substance was administered before the administration of the symptom evoking substance on the first day. MTX was suspended in 0.5 w/v % methylcellulose 400 solution (MC). ALA employed was aminolevulinic acid hydrochloride, and weights shown below are weights as aminolevulinic acid hydrochloride. […]
# For measurement of foot volume, the foot volumes of left and right posterior limbs were each measured on Days 0 (before grouping), 4, 7, 11, 14, and 18 with a Plethysmometer (model type: MK-101P, Muromachi Kikai Co., Ltd.). The foot volume was measured three times per foot, and the average value of the three was calculated. The foot volume of the other foot was similarly measured. The foot volume measurement value of one individual was calculated with the following mathematical formula. […]
# The measurement value before grouping was set as the Pre-value and the measurement value at each measurement point after grouping was set as the Post-value, and the value of increase in foot volume (A mL) was calculated by Post-value-Pre-value for each individual.
# The arthritis score measurement was measured on each of Days 0 (before grouping), 4, 7, 11, 14, and 18. […] Note that the total sum of left and right arthritis scores was calculated as the score for that individual. […]
# [1] = Day 18, oral once a day for 18 days, MTX 0.02 mg/kg, ALA 100 mg/kg, SFC 157 mg/kg
structure (smiles),measurement,setting,value
"CN(Cc1cnc2nc(N)nc(N)c2n1)c1ccc(C(=O)N[C@@H](CCC(=O)O)C(=O)O)cc1 [MTX, (S)-2-(4-(((2,4-diaminopteridin-6-yl)methyl)methylamino)benzamido) pentanedioic acid]",intergroup difference to Group 5 (control) in arthritis score,[1],1.5
same,intergroup difference to Group 5 (control) in value of increase in foot volume,[1],0.16 mL
same,anti-inflammatory effect in CIA model rats,"Group 1, only MTX 0.02 mg/kg oral daily",a certain level of anti-inflammatory effect was seen
